These results are taken from ChEMBL document CHEMBL4371047, “Effect of α-Methoxy Substitution on the Anti-HIV Activity of Dihydropyrimidin-4(3 H)-ones” (J Med Chem, 2019).

Series [1] deals with Human immunodeficiency virus type 1 reverse transcriptase (Human immunodeficiency virus 1), Q72547 [L100I].
Series [2] deals with Human immunodeficiency virus 1. Kind of series: Resistance index, ratio of EC50 for HIV-1 IRLL98 harboring reverse transcriptase M41L, D67N, Y181C, M184V, R211K, and T215Y mutants to EC50 for wild type HIV-1 NL4-3. It is filed as functional.
Series [3] relates to Human immunodeficiency virus 1. Kind of series: Antiviral activity against HIV 1 harboring reverse transcriptase Y181C mutant infected in human MT4 cells assessed as inhibition of virus-induced cytopathic effect after 5 days by MTT assay. It is filed as functional, organism-based. As to conditions: Human immunodeficiency virus 1, MT4, 120 h. For orientation: Damage to the host cells serves as the signal in cytopathic effect assays.

Series [4] in a line: Therapeutic index, ratio of CC50 for human MT4 cells to EC50 for HIV-1 NL4-3 infected in human MT4 cells. Format: toxicity, cell-based. As to conditions: read-out: Ratio CC50/EC50.
Series [5] concerns Human immunodeficiency virus 1. Kind of series: Antiviral activity against wild type HIV 1 NL4-3 infected in human MT4 cells assessed as inhibition of virus-induced cytopathic effect after 5 days by MTT assay. Format: functional, organism-based. As to conditions: Human immunodeficiency virus 1, NL4-3, MT4, 120 h.
Series [6] addresses Human immunodeficiency virus type 1 reverse transcriptase (Human immunodeficiency virus 1) (UniProt Q72547).
Description: Inhibition of recombinant wild type HIV-1 His-tagged reverse transcriptase p66/p51 expressed in Escherichia coli assessed as reduction in [3H]dTTP incorporation using poly(rA)/oligo(dT) as template/primer after 20 mins by scintillation counting analysis
Series [7] relates to Human immunodeficiency virus 1. Kind of series: Resistance index, ratio of EC50 for HIV-1 harboring reverse transcriptase Y188L mutant to EC50 for wild type HIV-1 NL4-3. It is filed as functional.
In series [8] the test system is Human immunodeficiency virus type 1 reverse transcriptase (Human immunodeficiency virus 1), Q72547 [K103N].
Description: Inhibition of recombinant HIV-1 His-tagged reverse transcriptase p66/p51 K103N mutant expressed in Escherichia coli assessed as reduction in [3H]dTTP incorporation using poly(rA)/oligo(dT) as template/primer after 20 mins by scintillation counting analysis
Series [9] concerns Human immunodeficiency virus 1. Kind of series: Antiviral activity against HIV-1 harboring reverse transcriptase Y188L mutant infected in human MT4 cells assessed as inhibition of virus-induced cytopathic effect after 5 days by MTT assay. It is filed as functional, organism-based. Conditions: Human immunodeficiency virus 1, MT4, 120 h.
The test system of series [10] is Human immunodeficiency virus 1. Kind of series: Resistance index, ratio of ID50 for recombinant HIV-1 His-tagged reverse transcriptase p66/p51 L100I mutant to ID50 for recombinant wild type HIV-1 reverse transcriptase His-tagged p66/p51.
Series [11] deals with Human immunodeficiency virus 1. Kind of series: Resistance index, ratio of EC50 for HIV-1 harboring reverse transcriptase Y181C mutant to EC50 for wild type HIV-1 NL4-3. Format: functional.
The test system of series [12] is Human immunodeficiency virus 1. Nature of the series: Antiviral activity against HIV-1 harboring reverse transcriptase K103N mutant infected in human MT4 cells assessed as inhibition of virus-induced cytopathic effect after 5 days by MTT assay. Conditions: Human immunodeficiency virus 1, MT4, 120 h. It is filed as functional, organism-based.
For series [13], the system named is Human immunodeficiency virus 1. Nature of the series: Resistance index, ratio of EC50 for HIV-1 harboring reverse transcriptase K103N mutant to EC50 for wild type HIV-1 NL4-3. Format: functional.
The nature of series [14]: Cytotoxicity against human MT4 cells assessed as reduction in cell viability after 5 days by MTT assay. It is filed as cell-based. (In general: Tetrazolium assays rely on reduction of a dye to a coloured formazan, in cell work by metabolically active cells.)
Series [15] concerns Human immunodeficiency virus 1. Nature of the series: Resistance index, ratio of ID50 for recombinant HIV-1 His-tagged reverse transcriptase p66/p51 Y181I mutant to ID50 for recombinant wild type HIV-1 reverse transcriptase His-tagged p66/p51.
Series [16] has as its system Human immunodeficiency virus type 1 reverse transcriptase (Human immunodeficiency virus 1), Q72547 [Y181I].
In series [17] the test system is Human immunodeficiency virus 1. Kind of series: Resistance index, ratio of ID50 for recombinant HIV-1 His-tagged reverse transcriptase p66/p51 K103N mutant to ID50 for recombinant wild type HIV-1 reverse transcriptase His-tagged p66/p51.
The test system of series [18] is Human immunodeficiency virus 1. Kind of series: Antiviral activity against HIV-1 IRLL98 harboring reverse transcriptase M41L, D67N, Y181C, M184V, R211K, and T215Y mutants infected in human MT4 cells assessed as inhibition of virus-induced cytopathic effect after 5 days by MTT assay. It is filed as functional, organism-based. Conditions: Human immunodeficiency virus 1, IRLL98, MT4, 120 h.

Series [19] concerns Human immunodeficiency virus 1. Nature of the series: Resistance index, ratio of EC50 for HIV-1 harboring reverse transcriptase K103N/Y181C double mutant to EC50 for wild type HIV-1 NL4-3. It is filed as functional.
Series [20] relates to Human immunodeficiency virus 1. Nature of the series: Antiviral activity against HIV-1 harboring reverse transcriptase K103N/Y181C double mutant infected in human MT4 cells assessed as inhibition of virus-induced cytopathic effect after 5 days by MTT assay. Format: functional, organism-based. Conditions: Human immunodeficiency virus 1, MT4, 120 h.

Structures are written as SMILES. pEC50: −log10 of the molar value.

Consider `CCC(C)Sc1nc(C(OC)c2c(F)cccc2F)c(C)c(=O)[nH]1` (stereo unspecified), for which the ID50 in [1] worked out at 280 nM; in series [6], 3 nM; in series [8] it was 1500 nM; in series [16], 5400 nM. Besides, the “Ratio EC50” value amounted to 27 in series [2], 311 in [7], 41 in [11] and 178 in [13]. Also, the pEC50 (as a rule, the EC50 on a negative log10 scale, so that one unit is a factor of ten) in series [3] is 6.43; in [5], 8.05; in series [9] it was 5.55; in [12] it was 5.80; in series [18], 6.62. Moreover, the selectivity ratio in [4] worked out at 3020. For the same compound, the Ratio worked out at 93 in [10], 1800 in series [15] and 500 in series [17]. Further, the CC50 (commonly the concentration at which the toxic effect on the cells reaches its halfway point) at 120 h in [14] is 27200 nM.

With `CCC(C)Sc1nc(C(C)c2c(F)cccc2Cl)c(C)c(=O)[nH]1` (stereo unspecified), the “Ratio EC50” value in [19] was 1367; in series [2], 317. For the same compound, in series [4], the selectivity ratio is > 5000. In addition, the CC50 at 120 h in series [14] is > 1500 nM. For the same compound, the pEC50 in series [20] is 6.39; in series [18] it was 7.02.

For `O=C1Nc2ccc(Cl)cc2[C@@](C#CC2CC2)(C(F)(F)F)O1` [EFAVIRENZ], the pEC50 in [3] is 7.36; in series [12], 6.41; in series [20] it was 6.40; in series [18], 6.20. In addition, the cytotoxic concentration (CC50) at 120 h in series [14] was > 3000 nM.

With `COC(c1nc(SC2CCCC2)[nH]c(=O)c1C)c1c(F)cccc1F` (stereo unspecified), the ID50 in [1] worked out at 910 nM; in series [6] it was 14 nM; in series [8] it was 260 nM; in series [16], 570 nM. For the same compound, the “Ratio EC50” value in series [2] is 29; in series [7], 110; in [11], 93; in series [13] it was 97. Further, the pEC50 in series [3] is 5.57; in series [5], 7.54; in series [9], 5.49; in series [12], 5.55; in series [18], 6.08. Further, the Ratio was found to be 65 in [10], 41 in series [15] and 19 in series [17]. Moreover, the cytotoxic concentration (CC50) at 120 h in series [14] came to 34300 nM.

Turning to `Cc1c(C(C)c2c(F)cccc2F)nc(NC(C)C)[nH]c1=O` (stereo unspecified), the ID50 stood at 250 nM in [1], 35 nM in series [6], 400 nM in series [8] and 3520 nM in series [16]. Also, the “Ratio EC50” value in [2] worked out at 7; in [11] it was 17; in series [13], 44. Also, the pEC50 in series [3] was 6.46; in series [5] it was 7.70; in series [9], < 5.00; in [12], 6.05; in series [18], 6.82. For the same compound, the selectivity ratio in [4] came to 10000. In addition, the Ratio in series [10] came to 7; in [15], 101; in series [17], 11. The 50% cytotoxic concentration (CC50) at 120 h in series [14] turned out to be 200000 nM.

As to `Cc1c(C(C)c2c(F)cccc2Cl)nc(SC(C)C)[nH]c1=O` (stereo unspecified), the “Ratio EC50” value in series [19] is 6750; in series [2] it was 1875. Further, the selectivity ratio in series [4] is > 375000. Also, the CC50 at 120 h in series [14] was > 15000 nM. In addition, the figures for the pEC50 in series [20] and in [18] were 6.57 and 7.12, respectively.

With `COC(c1nc(NC(C)C)[nH]c(=O)c1C)c1c(F)cccc1F` (stereo unspecified), the ID50 in series [1] is 1100 nM; in series [6], 57 nM; in series [8], 620 nM; in series [16] it was 1900 nM. In addition, the “Ratio EC50” value was determined as 5 in [2], 471 in series [7], 10 in series [11] and 16 in [13]. Also, the pEC50 was 6.85 in [3]; 7.85 in series [5]; 5.18 in [9]; 6.64 in [12]; 7.15 in series [18]. Moreover, the selectivity ratio in series [4] is > 5810. In addition, the Ratio in [10] was found to be 19; in series [15], 33; in series [17], 11. Also, in series [14], the CC50 at 120 h is > 81400 nM.

Regarding `COC(c1nc(SC2CCCC2)[nH]c(=O)c1C)c1c(F)cccc1Cl` (stereo unspecified), the ID50 was determined as 2300 nM in series [1], 7 nM in series [6], 150 nM in [8] and 3800 nM in [16]. Besides, the “Ratio EC50” value in [2] is 17; in series [7], 1229; in series [11], 229; in series [13] it was 100. The pEC50 in [3] is 6.80; in series [5] it was 9.15; in series [9], 6.07; in series [12] it was 7.15; in [18] it was 7.92. The selectivity ratio in [4] came to 52600. Also, the Ratio in series [10] worked out at 329; in series [15] it was 543; in series [17] it was 21. Moreover, the CC50 at 120 h in series [14] came out at 36800 nM.

On to `Cc1cc(C#N)cc(C)c1Oc1nc(Nc2ccc(C#N)cc2)nc(N)c1Br` [ETRAVIRINE], for which the “Ratio EC50” value in series [19] worked out at 38; in series [7] it was 40; in series [11], 18; in series [13], 4. Further, the pEC50 is 8.05 in series [3], 9.30 in series [5] and 8.70 in series [12]. Further, in [4], the selectivity ratio came to 7000. The ID50 in [6] was found to be 6 nM; in series [8], 85 nM. The CC50 at 120 h in [14] was found to be 3500 nM.

Consider `CCCN(C)c1nc(C(C)c2c(F)cccc2F)c(C)c(=O)[nH]1` (stereo unspecified), for which the “Ratio EC50” value in [2] is given as 4; in series [7], 26; in series [11], 9; in series [13], 9. In addition, the pEC50 in series [3] was 7.77; in series [5], 8.72; in series [9], 7.31; in [12], 7.80; in series [18], 8.15. In addition, the selectivity ratio in series [4] was > 41000. The Ratio in series [10] amounted to 6; in series [15], 40; in series [17] it was 6. Besides, the CC50 at 120 h in series [14] was > 78000 nM.

For the compound `COC(c1nc(SC(C)C)[nH]c(=O)c1C)c1c(F)cccc1F` (stereo unspecified), the ID50 was found to be 570 nM in [1], 8 nM in [6], 130 nM in series [8] and 9100 nM in series [16]. Besides, the “Ratio EC50” value is 31 in series [2], 171 in series [7], 33 in series [11] and 65 in [13]. Further, the pEC50 is 6.25 in [3]; 7.77 in series [5]; 5.54 in series [9]; 5.96 in series [12]; 6.28 in [18]. Besides, the selectivity ratio in series [4] is > 1470. Moreover, the Ratio in series [10] is 71; in series [15], 1140; in series [17], 16. For the same compound, in series [14], the CC50 at 120 h was > 25000 nM.

On to `Cc1ccnc2c1NC(=O)c1cccnc1N2C1CC1` [NEVIRAPINE], for which the ID50 in series [1] is 8500 to 9000 nM; in series [16], 33000 to 35000 nM. Also, the pEC50 in series [9] and in [20] was < 5.15 throughout. The 50% cytotoxic concentration (CC50) at 120 h in series [14] was > 7000 nM.

Turning to `CCCNc1nc(C(OC)c2c(F)cccc2F)c(C)c(=O)[nH]1` (stereo unspecified), the ID50 in series [1] turned out to be 980 nM; in series [6], 40 nM; in [8] it was 220 nM; in [16], 1700 nM. The “Ratio EC50” value in series [2] stood at 3; in [7], 700; in series [11], 20; in [13], 6. In addition, the pEC50 in [3] is 7.01; in series [5], 8.30; in [9], 5.46; in [12], 7.49; in [18] it was 7.80. For the same compound, the selectivity ratio in [4] is 16300. Also, the Ratio in series [10] was 24; in [15] it was 42; in [17], 5. The CC50 at 120 h in series [14] came to 81400 nM.
